# Source: ChEMBL document CHEMBL2074531, “Physicochemical parameters responsible for the affinity of methotrexate analogs for rat canalicular multispecific organic anion transporter (cMOAT/MRP2)” (Pharm Res, 2001)
# pKi: −log10 of the molar value.
# Target: ATP-binding cassette sub-family C member 2 (Rattus norvegicus, UniProt Q63120)
# Assay: TP_TRANSPORTER: inhibition of DNP-SG uptake in bile canalicular membrane vesicles from SD rat
# Format: functional, cell membranes, Sprague-Dawley, Bile canalicular membrane vesicle
# Chain of ATP-binding cassette sub-family C member 2 (Q63120 whole entry): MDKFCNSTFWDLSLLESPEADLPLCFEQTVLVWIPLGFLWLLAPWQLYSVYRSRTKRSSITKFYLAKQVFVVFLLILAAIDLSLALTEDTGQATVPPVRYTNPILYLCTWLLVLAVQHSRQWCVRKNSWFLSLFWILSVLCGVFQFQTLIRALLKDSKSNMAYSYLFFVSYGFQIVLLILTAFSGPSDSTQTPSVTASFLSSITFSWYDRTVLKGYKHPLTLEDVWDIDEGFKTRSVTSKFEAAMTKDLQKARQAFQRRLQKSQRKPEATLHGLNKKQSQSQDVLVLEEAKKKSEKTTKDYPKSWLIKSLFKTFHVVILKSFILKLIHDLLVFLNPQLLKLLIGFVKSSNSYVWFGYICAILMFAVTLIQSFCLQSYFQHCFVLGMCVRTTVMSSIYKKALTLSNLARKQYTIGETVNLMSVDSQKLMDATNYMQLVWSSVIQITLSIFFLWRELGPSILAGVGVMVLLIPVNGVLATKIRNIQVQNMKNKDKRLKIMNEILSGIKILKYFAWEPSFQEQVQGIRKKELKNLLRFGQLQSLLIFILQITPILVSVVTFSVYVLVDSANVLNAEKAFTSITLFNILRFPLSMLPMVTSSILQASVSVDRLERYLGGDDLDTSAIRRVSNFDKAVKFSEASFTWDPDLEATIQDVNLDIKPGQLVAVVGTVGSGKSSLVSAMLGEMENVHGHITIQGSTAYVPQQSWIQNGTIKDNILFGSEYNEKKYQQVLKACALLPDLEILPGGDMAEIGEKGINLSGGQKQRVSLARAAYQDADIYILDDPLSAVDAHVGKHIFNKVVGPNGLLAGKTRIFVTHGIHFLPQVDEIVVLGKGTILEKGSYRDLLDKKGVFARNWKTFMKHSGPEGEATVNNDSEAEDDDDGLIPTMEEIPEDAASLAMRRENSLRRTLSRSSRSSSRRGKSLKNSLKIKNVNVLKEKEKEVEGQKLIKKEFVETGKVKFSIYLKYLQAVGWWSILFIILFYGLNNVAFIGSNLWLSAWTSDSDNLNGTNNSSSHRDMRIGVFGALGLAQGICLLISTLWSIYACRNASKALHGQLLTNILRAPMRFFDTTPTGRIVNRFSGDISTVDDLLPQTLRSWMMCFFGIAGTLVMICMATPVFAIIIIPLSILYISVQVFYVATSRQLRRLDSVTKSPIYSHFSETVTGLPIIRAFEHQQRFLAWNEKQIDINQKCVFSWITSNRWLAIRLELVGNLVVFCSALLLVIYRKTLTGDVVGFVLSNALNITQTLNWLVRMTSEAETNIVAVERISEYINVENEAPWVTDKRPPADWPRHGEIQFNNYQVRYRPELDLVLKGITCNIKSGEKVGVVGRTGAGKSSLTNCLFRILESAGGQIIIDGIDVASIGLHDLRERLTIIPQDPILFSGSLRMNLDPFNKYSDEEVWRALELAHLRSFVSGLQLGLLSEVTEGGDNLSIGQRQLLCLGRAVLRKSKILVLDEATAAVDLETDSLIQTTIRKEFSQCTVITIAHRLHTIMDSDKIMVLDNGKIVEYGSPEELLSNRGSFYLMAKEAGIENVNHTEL
row,pKi,Compound
1,4.24,CCC(C)C(NC(=O)c1ccc(N(C)Cc2cnc3nc(N)nc(N)c3n2)cc1)C(=O)O (stereo not given)
2,3.51,CC(C)CC(NC(=O)c1ccc(N(C)Cc2cnc3nc(N)nc(N)c3n2)cc1)C(=O)O (stereo not given)
3,3.51,Nc1nc(N)c2nc(CN3CCOc4cc(C(=O)NC(CCC(=O)O)C(=O)O)ccc43)cnc2n1 (stereo not given)
4,3.76,Cc1cc(C(=O)NC(CCC(=O)O)C(=O)O)cc2c1N(Cc1cnc3nc(N)nc(N)c3n1)CC2 (stereo not given)
5,3.88,Cc1cc(C(=O)NC(CCCC(=O)O)C(=O)O)ccc1N(C)Cc1cnc2nc(N)nc(N)c2n1 (stereo not given)
6,3.80,Nc1nc(N)c2nc(CN3CCSc4cc(C(=O)NC(CCCC(=O)O)C(=O)O)ccc43)cnc2n1 (stereo not given)
7,3.08,CN(Cc1cnc2nc(N)nc(N)c2n1)c1ccc(C(=O)NC(CCC(=O)NC(CCC(=O)N[C@@H](CCC(=O)O)C(=O)O)C(=O)O)C(=O)O)cc1 (stereo not given in full)
8,3.34,CN(Cc1cnc2nc(N)nc(N)c2n1)c1ccc(C(=O)N[C@@H](CCC(=O)O)C(=O)O)cc1 [METHOTREXATE]
9,4.01,CCN(Cc1cnc2nc(N)nc(N)c2n1)c1ccc(C(=O)NC(CCC(=O)O)C(=O)O)cc1C (stereo not given)
10,3.42,Cc1cc(C(=O)NC(CCC(=O)O)C(=O)O)ccc1NCc1cnc2nc(N)nc(N)c2n1 (stereo not given)
11,3.86,Nc1nc(N)c2nc(CN3CCSc4cc(C(=O)NC(CCC(=O)O)C(=O)O)ccc43)cnc2n1 (stereo not given)
12,3.82,Cc1cc(C(=O)NC(CCC(=O)O)C(=O)O)ccc1N(C)Cc1cnc2nc(N)nc(N)c2n1 (stereo not given)
13,4.31,CN(Cc1cnc2nc(N)nc(N)c2n1)c1ccc(C(=O)NC(CCCNC(=O)c2ccccc2)C(=O)O)cc1 (stereo not given)
14,3.76,CC(C)N(Cc1cnc2nc(N)nc(N)c2n1)c1ccc(C(=O)NC(CCC(=O)O)C(=O)O)cc1 (stereo not given) [ISOAMINOPTERIN]
15,< 3.00,CN(Cc1cnc2nc(N)nc(N)c2n1)c1ccc(C(=O)N2C[C@H](O)C[C@H]2C(=O)O)cc1
16,4.49,CCN(Cc1cnc2nc(N)nc(N)c2n1)c1ccc(C(=O)NC(CCCNC(=O)c2ccccc2)C(=O)O)cc1 (stereo not given)
17,4.41,Cc1cc(C(=O)NC(CCC(=O)O)C(=O)O)cc(C)c1N(C)Cc1cnc2nc(N)nc(N)c2n1 (stereo not given)
18,3.65,Nc1nc(N)c2nc(CN3CCSc4cc(C(=O)N[C@@H](CCCC(=O)N[C@@H](CCC(=O)O)C(=O)O)C(=O)O)ccc43)cnc2n1
19,3.30,CN(Cc1cnc2nc(N)nc(N)c2n1)c1ccc(C(=O)NC(CCC(=O)NC(CCC(=O)NC(CCC(=O)NC(CCC(=O)N[C@@H](CCC(=O)O)C(=O)O)C(=O)O)C(=O)O)C(=O)O)C(=O)O)cc1 (stereo not given in full)
20,3.69,Nc1nc(N)c2nc(CN3CCOc4cc(C(=O)NC(CCCC(=O)O)C(=O)O)ccc43)cnc2n1 (stereo not given)
21,3.87,C=CCN(Cc1cnc2nc(N)nc(N)c2n1)c1ccc(C(=O)NC(CCC(=O)O)C(=O)O)cc1 (stereo not given)
22,3.11,CC(C)N(Cc1cnc2nc(N)nc(N)c2n1)c1ccc(C(=O)N2C[C@H](O)C[C@H]2C(=O)O)cc1
23,4.83,CC(C)N(Cc1cnc2nc(N)nc(N)c2n1)c1ccc(C(=O)NC(CCCNC(=O)c2ccccc2)C(=O)O)cc1 (stereo not given)
24,3.81,CCCN(Cc1cnc2nc(N)nc(N)c2n1)c1ccc(C(=O)NC(CCC(=O)O)C(=O)O)cc1 (stereo not given)
25,4.94,CCCN(Cc1cnc2nc(N)nc(N)c2n1)c1ccc(C(=O)NC(CCCNC(=O)c2ccccc2)C(=O)O)cc1 (stereo not given)
